Data on one molecule can be found in article PMC5691136, “The role of CXCR3/LRP1 cross-talk in the invasion of primary brain tumors” (Nature Communications, 2017).

As usually defined, the Kd is the concentration at which binding is half-saturated.

The assay has as its target T1, CXCR3-A (Homo sapiens, UniProt P49682).
T1 construct: full-length human CXCR3-A (isoform A) in membrane fragments of transfected U87 and HEK-293 cells
T1 sequence (P49682 1-368): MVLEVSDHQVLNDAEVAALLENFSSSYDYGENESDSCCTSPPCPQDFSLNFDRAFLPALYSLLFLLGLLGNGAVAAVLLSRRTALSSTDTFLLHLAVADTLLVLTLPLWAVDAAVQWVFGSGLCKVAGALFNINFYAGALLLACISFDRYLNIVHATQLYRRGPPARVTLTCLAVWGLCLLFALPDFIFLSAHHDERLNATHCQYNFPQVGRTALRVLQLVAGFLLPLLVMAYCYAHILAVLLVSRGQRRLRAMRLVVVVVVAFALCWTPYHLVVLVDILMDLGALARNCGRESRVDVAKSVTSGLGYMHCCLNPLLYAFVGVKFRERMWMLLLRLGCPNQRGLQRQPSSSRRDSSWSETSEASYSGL
Kind of assay: plasmon waveguide resonance on captured cell membrane fragments; no spectral change with U87-CTRL fragments. It counts as binding.

The molecule `NC(N)=NCCC[C@H](NC(=O)[C@@H]1Cc2ccccc2CN1C(=O)CCC(=O)c1ccccc1)C(=O)NCC1CCCCC1` [PS372424] displayed a Kd of 36 ± 9 nM.
